Results published in patent US7358239B2, “Pyrrolidinyl, piperidinyl or homopiperidinyl substituted (benzodioxan, benzofuran or benzopyran) derivatives” (Janssen Pharmaceutica, N.V., priority 1999, dated 2008).

System: fundus of the stomach (gastric tone)
Test: Gastric tone measured by an electronic barostat in conscious dogs
Format: in vivo
Settings: mean maximal change in gastric volume on relaxation of the fundus; S.C. administration, 0.63 mg/kg; 1 hour observation period; constant pressure 6 mmHg; conscious female beagle dogs
Method: C.1. Gastric Tone Measured by an Electronic Barostat in Conscious Dogs Gastric tone cannot be measured by manometric methods. Therefore an electronic barostat was used. This allows the study of the physiological pattern and regulation of gastric tone in conscious dogs and the influence of test-compounds on this tone. The barostat consists of an air injection system which is connected by a double-lumen 14-French polyvinyl tube to an ultrathin flaccid polyethylene bag (maximal volume: ±700 ml). Variations in gastric tone were measured by recording changes in the volume of air within an intragastric bag, maintained at a constant pressure. The barostat maintains a constant pressure (preselected) within a flaccid air-filled bag introduced into the stomach, changing the volume of air within, the bag by an electronic feedback system. Thus, the barostat measures gastric motor activity (contraction or relaxation) as changes in intragastric volume (decrease or increase resp.) at a constant intragastric pressure. The barostat consists of a strain gauge linked by an electronic relay to an air injection-aspiration system. Both the strain gauge and the injection system are connected by means of double-lumen polyvinyl tube to an ultrathin polyethylene bag. […] Test compounds were screened, i.e. changes in gastric volume were measured, usually at 0.63 mg/kg. […]

[1(R),[B-(3α,4α)]]-1-[1-[(3,4-dihydro-2H-1-benzopyran-2-yl)methyl]-3-methoxy-4-piperidinyl]-2(1H)pyrimidinone [Co. No. 2]
Maximum change in volume: 9 mL
